These results are taken from patent publication US10766862B2, “Crystal form and salt form of and preparation method for tyrosine kinase inhibitor” (GUANGDONG RAYNOVENT BIOTECH CO., LTD., priority 2016, dated 2020).

A value given as a limit tells only on which side of the number the result lay.

Test [1] concerns HUVEC. Kind of test: CellTiter-Glo Luminescent Cell Viability Assay on HUVEC stimulated with hVEGF-165. The following applies: Homo sapiens, hVEGF-165 20 ng/ml, 72 hr. The format is cell-based. The procedure: It is to detect the intracellular ATP change by CellTiter-Glo® Luminescent Cell Viability Assay, and evaluate the inhibitory effect of the compound on in vitro cell HUVEC with ICso value of the compound as the index.
HUVEC cell lines (ATCC), EGM-2 BulletKit (Lonza), hVEGF-165 (Cell Signaling), pancreatin (Invitrogen), DPBS (Hyclone), 384-well cell plate (Greiner), 384-well compound plate (Greiner), CO2 incubator (Thermo), centrifuger (Eppendorf), Vi-cell Cell Count (Beckman Coulter), Bravo Automated Liquid Handing Platform (Agilent), Envision (Perkin Elmer)
Test Method • A. Cells recovery and growth. • B. Cell planking: HUVEC cells were re-suspended with a fasted media (containing only 2% FBS and 0.1% GA-1000), and diluted to a concentration of 20,000/mL. The diluted cells were added into 384-well plate (Greiner) with 50 μL/well. The cell plate was placed in an incubator containing 5% CO2 at 37° C. overnight. • C. Compound Addition: The compound to be tested was subject to a 4-fold gradient dilution to 10 samples having a final concentration ranging from 10 μM to 0.038 nM with two duplicate wells per concentration. […] The mixture was incubated at room temperature for 10-30 minutes, and read with Envision. […]

Test [2] addresses T1, PDGFRB (Homo sapiens, UniProt P09619).
T1 construct: purchased Millipore
Briefly: Z'-LYTE Detection Kinase Assay, PDGFRB enzyme reaction. The format is biochemical. The source says:
(§1) It is to evaluate the inhibitory effect of the compound on three kinases VEGFR2, FGFR1, PDGFRB by detecting the enzyme activity in accordance with Z′-LYTE™ Detection Kinase Assay and using the ICso value of the compound as the index.
(§2) Recombinant human VEGFR2 and FGFR1 proteins are purchased from Life technology, and PDGFRB proteinase is purchased from Millipore.
(§3) Z-LYTE™ Kit Tyr1 and Tyr4 are purchased from Life technology.
(§4) Read with Multimode Microplate Reader Envision (PerkinElmer).
(§5) The compound to be test was subject to a 3-fold concentration gradient dilution to 11 final concentrations ranging from 10 μM to 0.17 nM 11 with two duplicate wells per concentration. The concentration of DMSO was 1% in the test reaction.
40 nM PDGFRB protein kinase, 2 μM Tyr4 peptide, 100 μM ATP, 50 mM HEPES (pH 7.5), 10 mM MgCl2, 1 mM EGTA, 0.01% BRIJ-35, 2 mM MnCl2, 1 mM DTT. The test plate is Black Proxiplate 384-Plus plate (PerkinElmer). The reaction runs at room temperature for 60 minutes, and the reaction system is […].
(§6) 5 μL of DV reagent B (1:128) was added to the kinase reaction mixture to stopped the reaction. The reaction mixture was incubated at 23° C. for 60 minutes, and read by Envision.
(§7) The data were converted to the phosphorylation rate and the inhibition rate. The parameter curve was fitted (Model 205 in XLFIT5, iDBS) to obtain the ICso data of the compound.

The target in test [3] is T2, VEGFR2 (Homo sapiens, UniProt P35968).
T2 construct: purchased Life technology
T2 sequence (P35968 20-1356): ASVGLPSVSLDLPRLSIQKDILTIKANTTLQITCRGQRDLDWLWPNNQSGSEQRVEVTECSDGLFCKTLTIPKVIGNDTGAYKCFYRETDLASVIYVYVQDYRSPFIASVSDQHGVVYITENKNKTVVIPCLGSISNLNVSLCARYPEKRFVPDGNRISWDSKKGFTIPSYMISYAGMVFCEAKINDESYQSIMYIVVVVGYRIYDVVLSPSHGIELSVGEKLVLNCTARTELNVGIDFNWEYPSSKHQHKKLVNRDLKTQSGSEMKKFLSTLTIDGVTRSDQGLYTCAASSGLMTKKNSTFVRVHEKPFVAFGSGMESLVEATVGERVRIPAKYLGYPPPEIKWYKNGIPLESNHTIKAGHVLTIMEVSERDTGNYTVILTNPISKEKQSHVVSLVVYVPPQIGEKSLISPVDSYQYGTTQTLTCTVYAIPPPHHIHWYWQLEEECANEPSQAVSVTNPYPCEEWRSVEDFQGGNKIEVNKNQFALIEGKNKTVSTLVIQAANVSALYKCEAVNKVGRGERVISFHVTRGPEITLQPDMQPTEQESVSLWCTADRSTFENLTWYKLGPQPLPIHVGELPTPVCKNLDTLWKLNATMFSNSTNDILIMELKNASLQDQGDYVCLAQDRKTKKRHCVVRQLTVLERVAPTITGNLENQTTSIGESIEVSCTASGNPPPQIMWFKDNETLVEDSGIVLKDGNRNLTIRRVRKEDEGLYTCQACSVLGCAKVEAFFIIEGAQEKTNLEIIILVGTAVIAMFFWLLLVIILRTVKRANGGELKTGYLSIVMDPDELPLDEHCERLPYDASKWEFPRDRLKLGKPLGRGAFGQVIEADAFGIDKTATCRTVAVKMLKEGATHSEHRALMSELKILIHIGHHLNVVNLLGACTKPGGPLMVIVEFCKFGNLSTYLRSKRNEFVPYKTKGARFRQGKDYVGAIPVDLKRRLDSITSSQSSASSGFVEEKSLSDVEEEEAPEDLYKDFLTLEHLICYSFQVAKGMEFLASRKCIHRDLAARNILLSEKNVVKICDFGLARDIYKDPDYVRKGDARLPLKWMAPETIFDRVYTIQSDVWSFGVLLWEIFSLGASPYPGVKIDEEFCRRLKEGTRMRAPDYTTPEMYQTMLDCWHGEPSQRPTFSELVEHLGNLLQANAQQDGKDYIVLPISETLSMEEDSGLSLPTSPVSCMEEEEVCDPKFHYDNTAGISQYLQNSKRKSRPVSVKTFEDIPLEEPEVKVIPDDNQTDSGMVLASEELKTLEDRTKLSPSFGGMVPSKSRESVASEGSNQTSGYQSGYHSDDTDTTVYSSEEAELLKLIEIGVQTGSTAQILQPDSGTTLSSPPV
Kind of test: Z'-LYTE Detection Kinase Assay, VEGFR2 enzyme reaction. Format: biochemical.
Source text: as §1, §2, §3, §4, §5
3 nM VEGFR2 protein kinase, 2 μM Tyr1 peptide, 100 μM ATP, 50 mM HEPES (pH 7.5), 10 mM MgCl2, 1 mM EGTA, 0.01% BRIJ-35. The test plate is Black Proxiplate 384-Plus plate (PerkinElmer). The reaction runs at room temperature for 60 minutes, and the reaction system is 10 μL.
as §6, §7

Test [4] concerns the target T3, FGFR1 (Homo sapiens, UniProt P11362).
T3 construct: purchased Life technology
Briefly: Z'-LYTE Detection Kinase Assay, FGFR1 enzyme reaction. The format is biochemical.
Source text: as §1, §2, §3, §4, §5
1 nM FGFR1 protein kinase, 2 μM Tyr4 peptide, 25 μM ATP, 50 mM HEPES (pH 7.5), 10 mM MgCl2, 1 mM EGTA, 0.01% BRIJ-35, 2 mM MnCl2, 1 mM DTT. The test plate is Black Proxiplate 384-Plus plate (PerkinElmer). The reaction runs at room temperature for 60 minutes, and the reaction system is 10 μL.
as §6, §7

[5] abbreviates: 100 μM ATP, 60 minutes, room temperature.

T3 sequence (P11362 22-822): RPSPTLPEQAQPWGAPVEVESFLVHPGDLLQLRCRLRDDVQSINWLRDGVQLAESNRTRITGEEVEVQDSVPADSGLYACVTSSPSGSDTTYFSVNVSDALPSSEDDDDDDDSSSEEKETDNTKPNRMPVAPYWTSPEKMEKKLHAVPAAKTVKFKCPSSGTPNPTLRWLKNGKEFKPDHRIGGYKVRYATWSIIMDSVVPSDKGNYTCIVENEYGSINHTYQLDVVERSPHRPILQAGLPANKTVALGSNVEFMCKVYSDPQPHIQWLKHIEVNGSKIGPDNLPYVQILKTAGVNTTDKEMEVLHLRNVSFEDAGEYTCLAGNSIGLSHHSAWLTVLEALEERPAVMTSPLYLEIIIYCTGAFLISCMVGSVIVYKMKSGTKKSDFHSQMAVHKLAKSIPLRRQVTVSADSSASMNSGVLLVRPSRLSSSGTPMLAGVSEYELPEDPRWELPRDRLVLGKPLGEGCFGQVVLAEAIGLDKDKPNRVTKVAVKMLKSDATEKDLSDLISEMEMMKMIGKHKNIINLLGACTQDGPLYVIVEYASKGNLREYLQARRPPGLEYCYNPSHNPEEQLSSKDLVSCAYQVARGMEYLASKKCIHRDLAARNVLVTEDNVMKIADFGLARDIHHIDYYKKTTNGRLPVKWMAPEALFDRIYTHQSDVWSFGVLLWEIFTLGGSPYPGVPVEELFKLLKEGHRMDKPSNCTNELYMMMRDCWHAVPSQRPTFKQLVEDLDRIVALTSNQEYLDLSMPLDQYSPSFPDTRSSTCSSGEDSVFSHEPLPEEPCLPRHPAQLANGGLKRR
T1 sequence (P09619 33-1106): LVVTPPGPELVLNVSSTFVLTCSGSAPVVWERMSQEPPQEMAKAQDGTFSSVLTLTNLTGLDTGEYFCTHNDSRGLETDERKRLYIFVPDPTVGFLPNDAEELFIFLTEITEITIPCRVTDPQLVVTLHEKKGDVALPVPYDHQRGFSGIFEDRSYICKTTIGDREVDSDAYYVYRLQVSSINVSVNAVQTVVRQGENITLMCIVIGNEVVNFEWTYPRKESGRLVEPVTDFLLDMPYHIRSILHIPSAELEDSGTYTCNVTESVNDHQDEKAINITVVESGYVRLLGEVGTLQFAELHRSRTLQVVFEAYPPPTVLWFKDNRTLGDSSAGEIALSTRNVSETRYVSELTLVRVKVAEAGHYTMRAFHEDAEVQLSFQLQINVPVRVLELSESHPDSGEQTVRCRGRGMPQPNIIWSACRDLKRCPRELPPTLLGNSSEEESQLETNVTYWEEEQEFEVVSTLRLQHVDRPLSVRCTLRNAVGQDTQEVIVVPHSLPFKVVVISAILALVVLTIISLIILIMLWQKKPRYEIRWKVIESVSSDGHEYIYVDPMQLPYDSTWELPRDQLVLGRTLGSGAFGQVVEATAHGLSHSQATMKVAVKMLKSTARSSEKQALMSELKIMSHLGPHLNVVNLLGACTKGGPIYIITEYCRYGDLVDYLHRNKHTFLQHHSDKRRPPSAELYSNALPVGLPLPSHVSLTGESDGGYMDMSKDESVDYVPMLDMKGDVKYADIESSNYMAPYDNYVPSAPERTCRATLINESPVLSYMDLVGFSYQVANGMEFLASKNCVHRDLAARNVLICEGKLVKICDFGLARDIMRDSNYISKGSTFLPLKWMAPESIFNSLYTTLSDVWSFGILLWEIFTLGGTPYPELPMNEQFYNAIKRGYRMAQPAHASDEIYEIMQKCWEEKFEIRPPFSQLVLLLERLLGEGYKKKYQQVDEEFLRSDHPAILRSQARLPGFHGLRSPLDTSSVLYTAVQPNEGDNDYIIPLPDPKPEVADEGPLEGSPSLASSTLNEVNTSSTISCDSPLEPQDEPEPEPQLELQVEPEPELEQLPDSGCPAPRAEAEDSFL

In the case of `COc1cc2nccc(Oc3ccc(NC(=S)NC4CC4)c(Cl)c3F)c2cc1C(N)=O` [Compound 1], the IC50 (commonly the concentration needed to halve the response being measured) in test [1] is below 100 nM; in test [2] (setting [5]), below 50 nM; in test [3] (setting [5]), below 50 nM; in test [4] (25 μM ATP, 60 minutes, room temperature), 50 to 200 nM. Also, in test [2], the “Inhibitory activity on PDGFRB in vitro, conclusion in words” value was “superior inhibitory activity”. The “Inhibitory activity on VEGFR2 in vitro, conclusion in words” value in test [3] is recorded as “superior inhibitory activity”. In addition, the “Inhibitory activity on FGFR1 in vitro, conclusion in words” value in test [4] is “superior inhibitory activity”.
